Like-named read-outs stand apart in the source and are kept apart here. Each block holds one compound with its values, some of them ahead of it.
Columns and labels:
[1] = Free fraction in plasma (fp); assay type: in vitro ADME; settings: method ref. 18
From the text: (§1) Table 1 LRRK2 wild-type (WT) and G2019S Lanthascreen, MDR1-MDCK permeability (Papp A:B), and efflux ratio (B:A/A:B), free fractions in plasma (fp) and brain homogenate (fb) and PET Multi-Parameter Optimization (MPO) score of Compounds 1, 2, and 3. | column: fp ^3 (%)

[2] = Free fraction in brain homogenate (fb); assay type: in vitro ADME; settings: method ref. 18
From the text: Table 1 LRRK2 wild-type (WT) and G2019S Lanthascreen, MDR1-MDCK permeability (Papp A:B), and efflux ratio (B:A/A:B), free fractions in plasma (fp) and brain homogenate (fb) and PET Multi-Parameter Optimization (MPO) score of Compounds 1, 2, and 3. | column: fb ^3 (%)

LRRK2 G2019S = LRRK2 G2019S (Homo sapiens, UniProt Q5S007, G2019S); test: LRRK2 G2019S Lanthascreen; assay type: biochemical; settings: assay described in ref. 16; read-out: LRRK2 Lanthascreen G2019S cKi
Chain of LRRK2 G2019S (Q5S007 whole entry G2019S): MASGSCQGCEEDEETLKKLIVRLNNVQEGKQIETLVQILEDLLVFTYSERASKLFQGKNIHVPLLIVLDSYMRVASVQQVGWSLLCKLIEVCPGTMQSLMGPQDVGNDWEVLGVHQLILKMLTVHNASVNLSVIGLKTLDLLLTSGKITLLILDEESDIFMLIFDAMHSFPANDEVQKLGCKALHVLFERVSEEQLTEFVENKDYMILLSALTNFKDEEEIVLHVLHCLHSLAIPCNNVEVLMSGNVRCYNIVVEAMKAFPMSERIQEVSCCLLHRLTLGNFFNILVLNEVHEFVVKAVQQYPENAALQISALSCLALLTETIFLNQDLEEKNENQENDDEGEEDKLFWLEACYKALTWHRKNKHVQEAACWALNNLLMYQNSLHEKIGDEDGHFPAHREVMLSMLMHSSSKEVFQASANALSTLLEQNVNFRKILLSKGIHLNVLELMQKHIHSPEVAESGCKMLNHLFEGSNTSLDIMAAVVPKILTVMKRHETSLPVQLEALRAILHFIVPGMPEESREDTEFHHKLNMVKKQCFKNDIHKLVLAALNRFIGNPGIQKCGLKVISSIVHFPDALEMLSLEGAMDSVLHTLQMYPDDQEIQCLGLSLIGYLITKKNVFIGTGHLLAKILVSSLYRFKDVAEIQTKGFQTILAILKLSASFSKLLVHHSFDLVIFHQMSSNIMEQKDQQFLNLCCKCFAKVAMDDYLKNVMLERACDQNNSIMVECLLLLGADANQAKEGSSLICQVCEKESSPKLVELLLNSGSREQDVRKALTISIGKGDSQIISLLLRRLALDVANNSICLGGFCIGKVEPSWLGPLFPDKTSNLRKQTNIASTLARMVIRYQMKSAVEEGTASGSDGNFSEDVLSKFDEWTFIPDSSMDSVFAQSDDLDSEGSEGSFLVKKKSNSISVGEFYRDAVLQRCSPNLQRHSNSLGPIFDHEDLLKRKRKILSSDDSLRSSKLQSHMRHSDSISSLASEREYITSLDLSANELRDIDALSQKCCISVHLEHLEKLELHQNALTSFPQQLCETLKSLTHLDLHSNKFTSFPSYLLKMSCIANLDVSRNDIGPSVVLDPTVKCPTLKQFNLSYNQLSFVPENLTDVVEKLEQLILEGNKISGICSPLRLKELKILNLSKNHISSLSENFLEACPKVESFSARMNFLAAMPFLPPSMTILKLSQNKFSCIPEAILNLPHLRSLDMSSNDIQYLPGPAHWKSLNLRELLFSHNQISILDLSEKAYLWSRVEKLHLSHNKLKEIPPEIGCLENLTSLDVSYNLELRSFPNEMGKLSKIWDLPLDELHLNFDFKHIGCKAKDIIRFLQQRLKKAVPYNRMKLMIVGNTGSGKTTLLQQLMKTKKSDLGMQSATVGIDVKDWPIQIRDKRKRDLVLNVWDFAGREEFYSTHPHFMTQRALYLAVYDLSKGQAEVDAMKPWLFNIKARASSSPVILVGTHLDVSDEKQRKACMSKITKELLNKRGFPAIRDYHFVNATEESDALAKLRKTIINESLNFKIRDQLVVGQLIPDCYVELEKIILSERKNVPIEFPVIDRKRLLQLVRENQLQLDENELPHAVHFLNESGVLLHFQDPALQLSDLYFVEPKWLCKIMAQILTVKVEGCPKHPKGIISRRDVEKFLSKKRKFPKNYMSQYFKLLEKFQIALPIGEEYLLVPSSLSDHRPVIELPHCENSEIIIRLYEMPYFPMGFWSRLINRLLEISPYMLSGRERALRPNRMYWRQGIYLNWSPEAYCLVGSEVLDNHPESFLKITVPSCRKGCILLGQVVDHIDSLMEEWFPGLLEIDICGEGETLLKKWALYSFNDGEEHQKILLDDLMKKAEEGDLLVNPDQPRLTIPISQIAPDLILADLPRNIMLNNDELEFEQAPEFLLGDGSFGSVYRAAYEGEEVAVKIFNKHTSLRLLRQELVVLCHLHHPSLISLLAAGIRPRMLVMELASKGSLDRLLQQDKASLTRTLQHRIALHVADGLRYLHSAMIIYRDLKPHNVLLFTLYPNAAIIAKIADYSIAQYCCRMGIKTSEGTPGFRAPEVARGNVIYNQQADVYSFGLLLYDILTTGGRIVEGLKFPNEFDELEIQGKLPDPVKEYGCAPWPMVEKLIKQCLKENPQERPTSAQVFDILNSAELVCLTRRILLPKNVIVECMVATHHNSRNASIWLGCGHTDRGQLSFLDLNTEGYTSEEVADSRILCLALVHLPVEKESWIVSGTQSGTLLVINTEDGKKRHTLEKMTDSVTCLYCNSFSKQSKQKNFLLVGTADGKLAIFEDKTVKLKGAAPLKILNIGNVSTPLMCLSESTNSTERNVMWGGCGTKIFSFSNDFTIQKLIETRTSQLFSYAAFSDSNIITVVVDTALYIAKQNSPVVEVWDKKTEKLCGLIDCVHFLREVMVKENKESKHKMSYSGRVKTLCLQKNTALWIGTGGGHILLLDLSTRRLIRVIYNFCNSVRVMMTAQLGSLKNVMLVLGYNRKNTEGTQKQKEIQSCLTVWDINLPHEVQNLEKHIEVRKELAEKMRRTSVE

LRRK2 wild-type (WT) = LRRK2 wild-type (WT) (Homo sapiens, UniProt Q5S007); test: LRRK2 wild-type Lanthascreen; assay type: biochemical; settings: assay described in ref. 16; read-out: LRRK2 Lanthascreen WT cKi
Chain of LRRK2 wild-type (WT) (Q5S007 whole entry): as the sequence (Q5S007 whole entry G2019S) above, with S2019G counted along it

MDR1 (P-gp) = test: MDR1-MDCK permeability and efflux ratio; assay type: in vitro ADME; settings: dog, assay described in ref. 17
From the text: as §1, with “Papp A:B ^2 (MDR1-MDCK) (cm/s × 10^−6); B:A/A:B ^2” for “fp ^3 (%)”

cynomolgus monkey brain = test: In vivo PET imaging in cynomolgus monkeys; settings: for Blocking effect on [^18F]1 brain binding in vivo: pretreatment 30 min before [^18F]1, GNE-7915 40 mg/kg, PFE-360 0.5 mg/kg iv
From the text: PET measurements were led using a high-resolution research tomograph (HRRT) from Siemens Molecular Imaging (Knoxville, TN, USA). List mode data were reconstructed using the ordinary Poisson-3D-ordered subset expectation maximization (OP-3D-OSEM) algorithm, with 10 repetitions and 16 subsets while modeling the point spread function (PSF). The in-plane resolution accomplished with OP-3D-OSEM and PSF was 1.5 mm full width at half maximum (FWHM) at the center of the field of view (FOV) and 2.4 mm at 10 cm off-center.
The study was approved by the Animal Ethics Committee of the Swedish Animal Welfare Agency and was performed according to “Guidelines for planning, conducting and documenting experimental research” (Dnr 5.2.18-4170/14 issued on 11 April 2014) of the KI as well as the “Guide for the Care and Use of Laboratory Animals” [26]. NHPs were supplied by the Astrid Fagraeus Laboratory (AFL) of the Swedish Institute for Infectious Disease Control (SMI), Solna, Sweden. Anesthesia was brought by intramuscular injection of ketamine hydrochloride (approximately 10 mg/kg) at AFL and continued with a mixture of sevoflurane (0–8.0%), oxygen, and medical air through endotracheal intubation at the KI PET center. The NHP head was immobilized using a homemade fixation device. Body temperature was maintained with a Bair Hugger model 505 (Arizant Healthcare, Eden Prairie, MN, USA) and monitored via an esophageal thermometer. ECG, heart rate, respiratory rate, blood pressure, and oxygen saturation were continuously examined throughout the experiments. The fluid balance was retained with continuous infusion of saline.
A 6 min transmission scan was performed before the injection of the radioligand using a single Cs-137 source. List mode data was acquired continuously for 93 min following intravenous administration of the radioligand. Images were reconstructed into 38 frames with varying intervals: […].
For all PET measurements, radioligands were administered via intravenous injection. Regions of interest (ROIs) were manually delineated on MRI images for each NHP, for the whole brain, cerebellum, caudate, putamen, thalamus, frontal cortex, temporal cortex, amygdala, posterior cingulate cortex, anterior cingulate cortex, hippocampus, occipital cortex, parietal cortex, ventral striatum, and insula. The summed PET images over the entire duration were co-registered with the individual NHP’s MRI image. After applying the co-registration parameters to the dynamic PET data, time–activity curves were generated for each brain region for every PET measurement. The standardized uptake value (SUV) was calculated for each brain region. The total distribution volume (VT) for all three radioligands were derived using one-tissue compartment (1-TC) and two-tissue compartment (2-TC) models.
On two separate occasions, PET measurements were performed after intravenous administration of GEN-7915 or PFE-360 with a slow infusion in one NHP (NHP2). The infusion lasted for 2 min, starting 30 min before PET scanning. The pretreatment formulations were prepared by dissolving it in DMSO (5%), Kolliphor EL (15%), and PBS (80%), and the pH of the final formulation was approximately 4.5–5.0. An automated blood sampling system (ABSS) measured continuous radioactivity for the first 3 min following the radioligand injection, while manual blood samples were taken at 4, 15, 30, 60, and 90 min post-injection to measure the radioactivity and metabolism.

LRRK2 = target: T1, LRRK2 (Homo sapiens, UniProt Q5S007); test: In vitro autoradiography, human whole-hemisphere brain slices; assay type: binding
T1 construct: Human brains without pathological findings were acquired from the National Institute of Forensic Medicine; from tissue; host or cells: human post-mortem control brain, whole-hemisphere sections (100 µm)
T1 sequence (Q5S007 whole entry): as the sequence (Q5S007 whole entry G2019S) above, with S2019G counted along it
Protocol: Human brains without pathological findings were acquired from the National Institute of Forensic Medicine at Karolinska Institutet in Stockholm, Sweden. These brains were obtained during forensic autopsies (designated as control brain) and were processed in a manner like previously described methods. […] The brain was removed, and its tissues were kept in −85 °C until the sectioning process. The whole brain hemispheric slices were subsequently maintained at −25 °C until the commencement of autoradiography procedures. […] The sectioning of the brain and the autoradiography experiments were performed at the Psychiatry section, Department of Neuroscience, Karolinska Institutet, Sweden.
Whole brain hemispheres were sectioned into horizontal slices with a thickness of 100 µm using a Leica cryomacrocut system. The autoradiographic procedures followed the same protocols established in previous studies conducted in our laboratory. The whole-hemisphere sections of 100 micron thickness were incubated for 90 min at room temperature with their corresponding radiotracer (4 MBq/200 mL) in TRIS buffer (pH 7.4) containing sodium chloride (120 mM), potassium chloride (5 mM), calcium chloride (2 mM), and albumin (0.1% w/v). After incubation, sections were washed three times in the same buffer at room temperature for five minutes each, briefly dipped in ice-cold distilled water, dried, and then placed in the phosphor imaging plates. Binding density standards were prepared by serial dilution of the radioligand stock solution in the assay buffer. Readings were taken with the Fujifilm BAS-5000 (Fujifilm, Tokyo, Japan), while quantitative analysis was conducted with the Multi Gauge 3.2 image analysis software (Fujifilm, Tokyo, Japan). For blocking experiments, adjacent brain sections were co-incubated with LuAF66583 (0.1 µM or 10 µM).

[3] = Stability of formulated radioligand in PBS (analytical HPLC); assay type: physicochemical; settings: sterile PBS, for 60 min
Protocol: The radiochemical purity and stability of all three radioligands ([^11C]3, [^18F]1 and [^18F]2) were determined using analytical HPLC coupled with an XBridge analytical column (C18 5 µm, 4.6 × 150 mm particle size), a Merck-Hitachi L-7100 pump, an L-7400 UV detector, and a GM tube for radioactivity detection (VWR International). A mixture of acetonitrile (25%) and HCO2NH4 (0.1 M aq. solution) (75%) with a flow rate of 2 mL/min was used as HPLC isocratic mobile phase. The HPLC liquid flow was monitored using a UV absorbance detector (λ = 254 nm) in conjunction with a radioactive detector (BETA-flow, Beckman, Fullerton, CA, USA). All three radioligands were eluted with a retention time (tR) of 4.0–4.5 min, and the total run time of the HPLC program was 9 min. The identity of the radiolabeled compound was confirmed by co-injecting the corresponding authentic reference standard.

[4] = Radiometabolite analysis in monkey plasma (gradient HPLC); assay type: in vivo, cynomolgus monkey; settings: baseline PET
Protocol: The technique published earlier was utilized for the analysis of radiometabolites in NHP blood plasma. During the entire PET measurement, the percentage of the injected radioligand and its corresponding radioactive metabolites and radioactivity was measured with a reverse-phase HPLC system with UV absorbance detector (λ = 254 nm) and a radioactive detector. […] The blood samples were centrifuged at 4000 rpm for 2 min to separate plasma. From the centrifuged plasma, the resulting plasma was withdrawn and spiked with 1.4 times its volume of acetonitrile before being spun at 6000 rpm for 4 min. The supernatant, collected after the spun at 6000 rpm, was diluted with 3 mL of water, which was then injected into the HPLC system. The HPLC system was constructed with an Agilent 1200 series binary pump (Agilent, Santa Clara, CA, USA), a Rheodyne 7725i (Thermo Scientific, Waltham, MA, USA) manual injection valve, a 5.0 mL loop, and an Oyokoken S-2493Z radiation detector (Oyokoken, Tokyo, Japan) fitted with 50 mm lead shielding, which houses the detector. Chromatographic separation of the radiometabolites from the unchanged radioligand was performed via gradient elution on a semi-preparative reverse-phase ACE 5 µm C18 HL column (250 × 10 mm) using a mobile phase of acetonitrile (A) and ammonium formate 0.1 M (B). A flow rate of 5.0 mL/min was utilized according to the program 0–6.0 min: (A/B) 40:60 → 90:10 v/v; 6.0–10.0 min: (A/B) 90:10 (v/v). The radioactive peak corresponding to the parent radioligand was then integrated from the data output of the HPLC column. The area of this peak was calculated relative to the total area detected for all radioactive compounds. To evaluate the radioactivity recovery from the system, the measurement was taken from a 2 mL aliquot of the eluate taken from the HPLC column and measured against the total injected radioactivity.

[5] = Plasma protein binding by ultrafiltration; assay type: in vitro ADME, non-human primate (NHP); settings: cynomolgus monkey, pH 7.4, NHP plasma, baseline
Protocol: The plasma protein binding of all three radioligands was determined in duplicate at the baseline condition according to a previously published method. For each blood plasma sample, 500 μL of non-human primate (NHP) blood plasma was used with 50 μL PBS (pH 7.4 containing KCl 0.2 mg, KH2PO4 0.2 mg, Na2HPO4 1.42 mg, and NaCl 8 mg per mL). The mixture included around 20 MBq of the corresponding radioligand in PBS. Samples underwent incubation at room temperature for 10 min. A small aliquot (20 µL) was taken from each mixture, and radioactivity measurements were performed using a well counter. From each mixture, 200 µL was placed into ultrafiltration tubes (Millipore Centrifree YM-30) and centrifuged at 3000 rpm for 15 minutes. The remaining filtrates were analyzed and aliquots (20 µL) were counted in the well counter described earlier. Protein-bound fractions were calculated as follows:(1) C⥂pla (filtrate) /Cpla (total) ÷CPBS (filtrate) /CPBS (total) ×100(%)
Cpla (total) represents the radioactivity concentration of incubation mixture in plasma and CPBS (total) represents the radioactivity concentration of incubation mixture in PBS. Cpla (filtrate) and CPBS (filtrate) are the radioactivity concentrations from filtrate samples.

- fraction unbound [1]: 0.47
- fraction unbound [2]: 0.23
- Ki (LRRK2 G2019S): 0.37 nM
- Ki (LRRK2 wild-type (WT)): 0.32 nM
- Papp A→B (MDR1 (P-gp); MDCK-MDR1): 44 ×10⁻⁶ cm/s
- efflux ratio (MDR1 (P-gp); MDR1-MDCK, read-out: B:A/A:B (efflux ratio)): 0.66
Structure (SMILES): C[C@@H]1C[C@@H](F)CN1c1c(C#N)c2c(N)ncnc2n1C [Compound 2, 4-Amino-6-((2R,4R)-4-fluoro-2-methylpyrrolidin-1-yl)-7-methyl-7H-pyrrolo[2,3-d]pyrimidine-5-carbo nitrile]

Structure (SMILES): CCNc1nc(Nc2cc(F)c(C(=O)N3CCOCC3)cc2OC)ncc1C(F)(F)F [GEN-7915, reference compound]
- Blocking effect on [^18F]1 brain binding in vivo (cynomolgus monkey brain): no clear blocking effects

- Effect on [^18F]1 binding (ARG) (LRRK2; human brain slice, pre-incubation with 0.1 µM): did not significantly reduce
- Effect on [^18F]2 binding (ARG) (LRRK2; human striatum, hippocampus, cerebellum, pretreated with 10 µM): significantly reduced
Structure (SMILES): Cn1cc(-c2c[nH]c3ncnc(N4CCOCC4)c23)cc1C#N [PFE-360, reference compound]
- Blocking effect on [^18F]1 brain binding in vivo (cynomolgus monkey brain): no clear blocking effects

Structure (SMILES): C[C@@H]1CCCN1c1c(C#N)c2c(N)nc(Nc3cnn([11CH3])c3)nc2n1C [[^11C]3, (R)-4-Amino-7-methyl-2-((1-[^11C]methyl-1H-pyrazol-4-yl)amino)-6-(2-methylpyrrolidin-1-yl)-7H-pyrrolo[2,3-d]pyrimidine-5-carbonitrile]
- Radiochemical purity maintained in formulation [3]: exceeding 99%
- Brain uptake (cynomolgus monkey brain; PET, iv, baseline): > 1 %ID
- Brain washout (cynomolgus monkey brain; PET, iv, baseline): rapid washout
- Regional distribution of brain uptake (cynomolgus monkey brain; PET, iv, baseline): no significant regional differences
- Parent compound, share of eluted plasma radioactivity ([4]; at 5 min): over 90%
- Parent compound, share of eluted plasma radioactivity ([4]; at 90 min): around 10%
- fraction unbound at 10 min ([5]; read-out: Free fraction in plasma (fP)): ~0.15
- fraction unbound at 10 min ([5]; read-out: Plasma protein binding (converted)): < 0.15
